Patent US20130157954A1, “METHODS FOR TREATMENT OR PROPHYLAXIS OF KIDNEY OR LIVER DYSFUNCTION” (NPS PHARMACEUTICALS, INC., priority 2010, published 2013)

Assay: Example 2: liver biomarkers (albumin, gamma glutamyl transferase, total bilirubin, ALT, AST, ALP) in short bowel syndrome patients, every four weeks for 24 weeks; also sorted by >10% change from baseline
Assay type: in vivo, Human
Settings: 0.05 mg/kg/d
Protocol: To further confirm the results of Example 1, a further study was conducted involving more individuals and additional diagnostic biomarkers. Human patients with short bowel syndrome were divided into two groups: a control group (43 total individuals) to receive placebo, and an experimental group (42 total individuals) to receive teduglutide at 0.05 mg/kg/day throughout the study. Patients were treated by subcutaneous injection of placebo or the appropriate dose of teduglutide. Known biomarkers of liver function were monitored every four weeks, for 24 weeks. The liver biomarkers tested included albumin, gamma glutamyl transferase, total bilirubin, ALT and AST and ALP. Before administration of placebo or teduglutide, diagnostic biomarker levels were tested to establish a baseline for each individual.
To determine the effect of GLP-2 on the levels of the diagnostic biomarkers, the average level of each biomarker was measured for the placebo and teduglutide treated groups for each visit. Furthermore, the average change from baseline was calculated using the established baseline values. For FIGS. 17-28, p-values were calculated using the t-test.
P values are provided, which were calculated for each distribution of biomarker changes for each week using the chi-squared test.

SMILES: CC[C@H](C)[C@H](NC(=O)[C@H](Cc1ccccc1)NC(=O)[C@H](CC(=O)O)NC(=O)[C@H](CCCNC(=N)N)NC(=O)[C@H](C)NC(=O)[C@H](C)NC(=O)[C@H](CC(C)C)NC(=O)[C@H](CC(N)=O)NC(=O)[C@H](CC(=O)O)NC(=O)[C@H](CC(C)C)NC(=O)[C@@H](NC(=O)[C@@H](NC(=O)[C@H](CC(N)=O)NC(=O)[C@H](CCSC)NC(=O)[C@H](CCC(=O)O)NC(=O)[C@H](CC(=O)O)NC(=O)[C@H](CO)NC(=O)[C@H](Cc1ccccc1)NC(=O)[C@H](CO)NC(=O)CNC(=O)[C@H](CC(=O)O)NC(=O)CNC(=O)[C@@H](N)Cc1c[nH]cn1)[C@@H](C)O)[C@@H](C)CC)C(=O)N[C@@H](CC(N)=O)C(=O)N[C@@H](Cc1c[nH]c2ccccc12)C(=O)N[C@@H](CC(C)C)C(=O)N[C@H](C(=O)N[C@@H](CCC(N)=O)C(=O)N[C@H](C(=O)N[C@@H](CCCCN)C(=O)N[C@H](C(=O)N[C@H](C(=O)N[C@@H](CC(=O)O)C(=O)O)[C@@H](C)O)[C@@H](C)CC)[C@@H](C)O)[C@@H](C)CC [teduglutide]
- Bilirubin: subjects Within 10% of Baseline (Week 8, m = 40): 10 (25.0%) n (%)
- Bilirubin: subjects with >10% decrease from Baseline (Week 8, m = 40): 20 (50.0%) n (%)
- Bilirubin: subjects with >10% increase from Baseline (Week 8, m = 40): 10 (25.0%) n (%)
- ALKALINE PHOSPHATASE Change from Baseline Median (Week 12): −23 U/L
- ALT Change from Baseline, Max (Week 12): 35 U/L
- ALT Change from Baseline, Mean (Week 12): −9.8 U/L
- ALT Change from Baseline, Median (Week 12): −4 U/L
- ALT Change from Baseline, Min (Week 12): −62 U/L
- ALT Observed Value, Max (Week 12): 94 U/L
- ALT Observed Value, Min (Week 12): 11 U/L
- AST Change from Baseline, Max (Week 12): 34 U/L
- AST Change from Baseline, Mean (Week 12): −4.2 U/L
- AST Change from Baseline, Median (Week 12): −5 U/L
- AST Change from Baseline, Min (Week 12): −39 U/L
- AST Observed Value, Max (Week 12): 60 U/L
- AST Observed Value, Median (Week 12): 25 U/L
- AST Observed Value, Min (Week 12): 9 U/L
- Albumin Change from Baseline, Max (Week 12): 5 g/L
- Albumin Change from Baseline, Mean (Week 12): -0.9 g/L
- Albumin Change from Baseline, Median (Week 12): -1 g/L
- Albumin Change from Baseline, Min (Week 12): -7 g/L
- Albumin Observed Value, Max (Week 12): 47 g/L
- Albumin Observed Value, Median (Week 12): 41 g/L
- Albumin Observed Value, Min (Week 12): 35 g/L
- Alkaline Phosphatase Change from Baseline, Max (Week 12): 25 U/L
- Alkaline Phosphatase Change from Baseline, Min (Week 12): −127 U/L
- Alkaline Phosphatase Observed Value, Max (Week 12): 304 U/L
- Alkaline Phosphatase Observed Value, Median (Week 12): 98 U/L
- Alkaline Phosphatase Observed Value, Min (Week 12): 52 U/L
- Bilirubin Change from Baseline, Max (Week 12): 5.2 µmol/L
- Bilirubin Change from Baseline, Median (Week 12): -0.05 µmol/L
- Bilirubin Change from Baseline, Min (Week 12): -13.2 µmol/L
- Bilirubin Observed Value, Max (Week 12): 57.8 µmol/L
- Bilirubin Observed Value, Min (Week 12): 3.2 µmol/L
- Gamma Glutamyl Transferase Change from Baseline, Max (Week 12): 56 U/L
- Gamma Glutamyl Transferase Change from Baseline, Mean (Week 12): −8.1 U/L
- Gamma Glutamyl Transferase Change from Baseline, Median (Week 12): −4 U/L
- Gamma Glutamyl Transferase Change from Baseline, Min (Week 12): −162 U/L
- Gamma Glutamyl Transferase Observed Value, Max (Week 12): 240 U/L
- Gamma Glutamyl Transferase Observed Value, Median (Week 12): 51 U/L
- Gamma Glutamyl Transferase Observed Value, Min (Week 12): 8 U/L
- ALT: subjects Within 10% of Baseline (Week 12, m = 34): 10 (29.4%) n (%)
- ALT: subjects with >10% decrease from Baseline (Week 12, m = 34): 17 (50.0%) n (%)
- ALT: subjects with >10% increase from Baseline (Week 12, m = 34): 7 (20.6%) n (%)
- AST: subjects Within 10% of Baseline (Week 12, m = 34): 6 (17.6%) n (%)
- AST: subjects with >10% decrease from Baseline (Week 12, m = 34): 21 (61.8%) n (%)
- AST: subjects with >10% increase from Baseline (Week 12, m = 34): 7 (20.6%) n (%)
- Albumin: subjects Within 10% of Baseline (Week 12, m = 34): 31 (91.2%) n (%)
- Albumin: subjects with >10% decrease from Baseline (Week 12, m = 34): 2 (5.9%) n (%)
- Albumin: subjects with >10% increase from Baseline (Week 12, m = 34): 1 (2.9%) n (%)
- Alkaline Phosphatase: subjects Within 10% of Baseline (Week 12, m = 34): 6 (17.6%) n (%)
- Alkaline Phosphatase: subjects with >10% decrease from Baseline (Week 12, m = 34): 23 (67.6%) n (%)
- Alkaline Phosphatase: subjects with >10% increase from Baseline (Week 12, m = 34): 5 (14.7%) n (%)
- Bilirubin: subjects Within 10% of Baseline (Week 12, m = 34): 10 (29.4%) n (%)
- Bilirubin: subjects with >10% decrease from Baseline (Week 12, m = 34): 15 (44.1%) n (%)
- Bilirubin: subjects with >10% increase from Baseline (Week 12, m = 34): 9 (26.5%) n (%)
- ALT Change from Baseline, Max (Week 16): 45 U/L
- ALT Change from Baseline, Mean (Week 16): −8.0 U/L
- ALT Change from Baseline, Median (Week 16): −3 U/L
- ALT Change from Baseline, Min (Week 16): −64 U/L
- ALT Observed Value, Max (Week 16): 140 U/L
- ALT Observed Value, Min (Week 16): 13 U/L
- AST Change from Baseline, Max (Week 16): 20 U/L
- AST Change from Baseline, Mean (Week 16): −3.3 U/L
- AST Change from Baseline, Median (Week 16): −3 U/L
- AST Change from Baseline, Min (Week 16): −42 U/L
- AST Observed Value, Max (Week 16): 65 U/L
- AST Observed Value, Median (Week 16): 26 U/L
- AST Observed Value, Min (Week 16): 9 U/L
- Albumin Change from Baseline, Max (Week 16): 3 g/L
- Albumin Change from Baseline, Mean (Week 16): -0.7 g/L
- Albumin Change from Baseline, Median (Week 16): -0.5 g/L
- Albumin Change from Baseline, Min (Week 16): -5 g/L
- Albumin Observed Value, Max (Week 16): 49 g/L
- Albumin Observed Value, Median (Week 16): 42 g/L
- Albumin Observed Value, Min (Week 16): 32 g/L
- Alkaline Phosphatase Change from Baseline, Max (Week 16): 71 U/L
- Alkaline Phosphatase Change from Baseline, Min (Week 16): −104 U/L
- Alkaline Phosphatase Observed Value, Max (Week 16): 311 U/L
- Alkaline Phosphatase Observed Value, Min (Week 16): 46 U/L
- Bilirubin Change from Baseline, Max (Week 16): 5.2 µmol/L
- Bilirubin Change from Baseline, Min (Week 16): -37.7 µmol/L
- Bilirubin Observed Value, Max (Week 16): 27.4 µmol/L
- Bilirubin Observed Value, Mean (Week 16): 9.40 µmol/L
- Bilirubin Observed Value, Median (Week 16): 8.1 µmol/L
- Bilirubin Observed Value, Min (Week 16): 3.4 µmol/L
- Gamma Glutamyl Transferase Change from Baseline, Max (Week 16): 90 U/L
- Gamma Glutamyl Transferase Change from Baseline, Mean (Week 16): −7.0 U/L
- Gamma Glutamyl Transferase Change from Baseline, Median (Week 16): −5.5 U/L
- Gamma Glutamyl Transferase Change from Baseline, Min (Week 16): −161 U/L
- Gamma Glutamyl Transferase Observed Value, Max (Week 16): 294 U/L
- Gamma Glutamyl Transferase Observed Value, Median (Week 16): 54 U/L
- Gamma Glutamyl Transferase Observed Value, Min (Week 16): 6 U/L
- ALT: subjects Within 10% of Baseline (Week 16, m = 38): 10 (26.3%) n (%)
- ALT: subjects with >10% decrease from Baseline (Week 16, m = 38): 20 (52.6%) n (%)
- ALT: subjects with >10% increase from Baseline (Week 16, m = 38): 8 (21.1%) n (%)
- AST: subjects Within 10% of Baseline (Week 16, m = 38): 12 (31.6%) n (%)
- AST: subjects with >10% decrease from Baseline (Week 16, m = 38): 19 (50.0%) n (%)
- AST: subjects with >10% increase from Baseline (Week 16, m = 38): 7 (18.4%) n (%)
- Albumin: subjects Within 10% of Baseline (Week 16, m = 38): 36 (94.7%) n (%)
- Albumin: subjects with >10% decrease from Baseline (Week 16, m = 38): 2 (5.3%) n (%)
- Albumin: subjects with >10% increase from Baseline (Week 16, m = 38): 0 n (%)
